According to patent publication US7291499B2, “Transformed cell, method of screening anti-aging agent and anti-aging agent” (priority 2001, dated 2007):

Legend:
[1] = test system: WI-38 cell with activated Raf kinase region-estrogen receptor fusion gene; test: Cell growth in tamoxifen-inducible activated Raf cellular senescence system; format: cell-based, human; settings: for inhibition of the termination of cell growth induced by the activation of Raf: Raf activated by 10 nM tamoxifen, 25 μM inhibitor added simultaneously
Method: (§1) This is a result of fusing an estrogen receptor gene with a sequence coding for the kinase region of activated Raf gene.
(§2) (1) In accordance with the aforementioned method, induction of cellular senescence was tested by carrying out gene transfer into the WI-38 cell and thereby constructing a system which can induce cellular senescence by the administration of tamoxifen.
(§3) The results are shown in FIG. 12, FIG. 13, FIG. 14 and FIG. 15.

[2] = test system: WI-38 cell with activated Raf kinase region-estrogen receptor fusion gene; test: β-galactosidase positive cells in tamoxifen-inducible activated Raf cellular senescence system; format: cell-based, human; settings: for inhibition of the increase of cellular senescence-specific β-galactosidase positive cell induced by the activation of Raf: Raf activated by 10 nM tamoxifen, 25 μM inhibitor added simultaneously
Method: as §1, §2, §3

[3] = test system: human normal fibroblast WI-38; test: Cell morphology and cellular senescence-specific β-galactosidase activity in WI-38 cells; format: cell-based; settings: senescent cell (61 times of division), SB203580-treated
Method: Specifically, young and senescent cells of the human normal fibroblast WI-38 were respectively washed with PBS and then fixed using 0.5% glutaraldehyde aqueous solution. After the fixation, the cells were soaked in a staining solution [prepared by dissolving 1 mg/ml of X-gal (5-bromo-4-chloro-3-indolyl-[…]), 5 mmol//L potassium ferrocyanide, 5 mmol//L potassium feriocyanide and 1 mmol//L magnesium chloride in phosphate buffered saline (PBS; pH 6.0)] and allowed to react at 37° C. for 5 hours or more.
In addition, cell morphology and β-galactosidase activity in each treated group were analyzed in accordance with the procedure described in Reference Example 1(2).

[4] = test system: human normal fibroblast WI-38; test: Ratio of S phase cell by FACS analysis (BrdU labeling) in young and senescent WI-38 cells; format: cell-based
Method: Also, the ratio of S phase cells in each treated group was determined by FACS analysis in accordance with the procedure described in the following Example 2(3-a), and the results shown in FIG. 4. The symbol “+” in FIG. 4 means that it was treated with 10 μmol//L of SB203580.
[…] Next, the cells were fixed with 70% ethanol and treated with 2 mol//L hydrochloric acid for 30 minutes. Subsequently, they were neutralized with 0.1 mol//L sodium borate and then allowed to react with FITC-labeled anti-BrdU antibody (manufactured by BECTON DICKINSON) for 1 hour. After completion of the reaction, the cells were washed with a washing buffer [PBS containing 0.5% Tween 20 and 1% bovine serum albumin (BSA)] and suspended in a PBS solution containing 5 μg/ml ProPidium Iodide (PI). The samples were analyzed by a two dimensional flow cytometry.

[5] = test system: MKK6 gene- or MKK6EE gene-introduced human normal fibroblast WI-38; test: Ratio of β-galactosidase positive cells in MKK6 or MKK6EE gene-introduced transformed cell; format: cell-based; settings: 10 μmol//L SB203580, culturing period of 6 days
Method: Specifically, young and senescent cells of the human normal fibroblast WI-38 were respectively washed with PBS and then fixed using 0.5% glutaraldehyde aqueous solution. After the fixation, the cells were soaked in a staining solution [prepared by dissolving 1 mg/ml of X-gal (5-bromo-4-chloro-3-indolyl-β-galactosidase), 5 mmol//L potassium ferrocyanide, 5 mmol//L potassium feriocyanide and 1 mmol//L magnesium chloride in phosphate buffered saline (PBS; pH 6.0)] and allowed to react at 37° C. for 5 hours or more.
Next, the procedure described in Reference Example 1 (2) was repeated, except that the two species of the transformed cell of the present invention and one species of a control cell wherein the vector alone was introduced, obtained by repeating the same procedure of Example 2(1), (cells after a culturing period of 6 days in each case; SB203580-untreated cells) and the two species of the transformed cell of the present invention and one species of a control cell wherein the vector alone was introduced, obtained by repeating the same procedure of Example 2(2), (cells after a culturing period of 6 days in each case; SB203580-treated cells) were used. […]

[6] = test system: human normal fibroblast WI-38; test: Cell growth curve (WST-1 relative cell number) of young and senescent WI-38 cells with p38 protein inhibitor; format: cell-based
Text: In the example, effect of a p38 protein inhibitor SB203580 was compared using the same young cell (42 times of division) and senescent cell (61 times of division) of the human normal fibroblast WI-38 used in Reference Example 1. Specifically, the same procedure of the following Example 2 (2) was repeated, except that a young cell (42 times of division) and a senescent cell (61 times of division) of the human normal fibroblast WI-38 cultured in the same manner in Reference Example 1(1) were used instead of the transformed cell.
In FIG. 3, the polygonal line a is cell growth curve of the young cell in the presence of SB203580, the polygonal line b is cell growth curve of the young cell in the absence of SB203580, the polygonal line c is cell growth curve of the senescent cell in the presence of SB203580 and the polygonal line d is cell growth curve of the senescent cell in the absence of SB203580. The symbol “+SB” in FIG. 3 means that it was treated with 10 μmol//L of SB203580.
The relative number of cells during these 6 days was measured every other day using a commercially available kit [Cell Counting Kit (WST-1 assay), manufactured. by DOJINDO].
The WST-1 assay is a method to know indirectly degree of cell growth ability with the use of the calorimetric determination of the activity of dehydration reactions wherein intracellular lactate dehydrogenase and the like are related.
Measurement and calculation of the relative cell number were specifically carried out by the following method. That is, 1,000 cells per each well of a 96 well plate were precultured for 24 hours. […] After the reaction, measurement was carried out using a plate reader (measuring wave length=450 nm). These were measured on three samples on each of the measuring days (on the 0th, 2nd, 4th and 6th days) during the growth period, and the average values were used as the data of respective measuring days. The relative number of cells of measured values on respective measuring days was calculated by defining the average of measured values on the 0th day as 1.

[7] = test system: MKK6 gene- or MKK6EE gene-introduced human normal fibroblast WI-38; settings: 10 μmol//L SB203580 from the 4th day after infection, 6 days culture
Method: As the target cell, young cell (42 PD; 5×10^5 cells/10 cm dish) of the human normal fibroblast WI-38 was cultured for 8 hours in the virus supernatant to which polybrene (final concentration=8 μg/ml) had been added. The virus supernatant was once removed, and then fresh virus supernatant [containing polybrene (final concentration=8 μg/ml)] was again added, followed by the culturing for 8 hours. Each of the infection-treated cells was cultured for 3 days in DMEM containing puromycin (2.5 μg/ml).
On the 4th day after carrying out the infection, the medium was changed to DMEM containing 2.5% dimethyl sulfoxide (DMSO), followed by the culturing for 6 days. […] The relative number of cells during these 6 days was measured every other day using a commercially available kit [Cell Counting Kit (WST-1 assay), manufactured. by DOJINDO].
Measurement and calculation of the relative cell number were specifically carried out by the following method. […] After the reaction, measurement was carried out using a plate reader (measuring wave length=450 nm). These were measured on three samples on each of the measuring days (on the 0th, 2nd, 4th and 6th days) during the growth period, and the average values were used as the data of respective measuring days. The relative number of cells of measured values on respective measuring days was calculated by defining the average of measured values on the 0th day as 1. […]

[8] = test system: phosphorylation type p38 protein (active type p38 protein); test: Western blotting of phosphorylated state of p38 protein; format: cell-based, human; settings: young cell (42 PD), 30 μmol//L anisomycin for 30 minutes, positive control, versus untreated young cell
Text: In this reference example, the phosphorylated state of p38 protein in young and senescent cells of the human normal fibroblast WI-38 was confirmed by a Western blotting respectively using an antibody capable of detecting total p38 protein and another antibody capable of specifically detecting a phosphorylation type p38 protein (namely active type p38 protein) alone.
Specifically, young and senescent cells of the human normal fibroblast WI-38 (about 5×10^6 cells) cultured in the same manner as in Reference Example 1(1) were respectively dissolved in 0.1 ml of a buffer solution for dissolution [lysis buffer; 150 mmol//L sodium chloride, 0.5% NP-40, 50 mmol//L Tris-HCl (pH 7.5), 3 mmol//L EDTA, 3 mmol//L EGTA, 3 mmol//L glycerophosphate, […] Na3VO4, 1 μg/ml leupeptin and 1 mmol//L phenylmethanesulfonyl fluoride (PMSF)].
Subsequently, each extraction sample corresponding to 30 μg as the amount of protein was separated by an SDS polyacrylamide gel electrophoresis in the usual way and then transferred on a membrane (Immobilon-P membrane; manufactured by Millipore). After subjecting the membrane to a blocking treatment using a commercially available blocking agent (Block Ace; manufactured. by Dainippon Pharmaceutical), a primary antibody reaction and a secondary antibody reaction were carried out in order. […]

[9] = induction of cellular senescence via Raf-estrogen receptor fusion
[10] = young cell (42 times of division), 10 μmol//L SB203580, same in presence or absence

Compound: CC/C(=C(\c1ccccc1)c1ccc(OCCN(C)C)cc1)c1ccccc1 [tamoxifen]
- tamoxifen concentration at which termination of cell growth was observed [1, 9]: ≥ 1 nM
- tamoxifen concentration at which increase of cellular senescence-specific β-galactosidase positive cell was observed [2, 9]: ≥ 1 nM

Compound: C[S+]([O-])c1ccc(-c2nc(-c3ccc(F)cc3)c(-c3ccncc3)[nH]2)cc1 (stereo not shown) [SB203580, 4-[4-(4-fluorophenyl)-2-[4-(methylsulfinyl)phenyl]-1H-imidazol-5-yl]-pyridine]
- cellular senescence-specific β-galactosidase-positive degree [3]: low
- morphology of the flat cytoplasm [3]: became thin
- S phase cell ([4]; senescent cell (61 times of division), 10 μmol//L SB203580, 72 hours of BrdU labeling, untreated about 5%): about 25%
- S phase cell [4, 10]: about 20%
- increase of the cellular senescence-specific β-galactosidase positive cells [5]: inhibited
- inhibition of the termination of cell growth induced by the activation of Raf [1]: more strongly than the PD98059
- anti-aging activity upon senescent cell ([6]; senescent cell (61 PD) of WI-38, illustrative data not shown): showed the anti-aging activity
- cell growth in comparison with the untreated case ([6]; senescent cell (61 times of division), 10 μmol//L SB203580): accelerated growth
- doubling time [6, 10]: about 2 days
- inhibition of the increase of cellular senescence-specific β-galactosidase positive cell induced by the activation of Raf [2]: more strongly than the PD98059
- growth inhibitory effect by the MKK6 gene or MKK6EE gene [7]: inhibited

Compound: COc1cccc(-c2cc(=O)c3ccccc3o2)c1N [PD98059]
- inhibition of the termination of cell growth induced by the activation of Raf [1]: partially inhibited
- inhibition of the increase of cellular senescence-specific β-galactosidase positive cell induced by the activation of Raf [2]: partially inhibited

Compound: COc1ccc(C[C@H]2NC[C@H](O)[C@H]2OC(C)=O)cc1 [anisomycin]
- active type p38 protein amount [8]: increased
